Measurements reported in patent publication US10640545B2 (THE GOVERNORS OF THE UNIVERSITY OF ALBERTA, priority 2017, dated 2020).
“And” between values parts separate entries of the source, which are not always exact repeats. Equal entries are not always repeated. One block for each molecule: values may come before it. Where a SMILES comes first, the peptide text is derived from it. [ ]: non-standard residue; d: D form. The star is where a group is joined. Phe(4-Br) = N[C@@H](Cc1ccc(Br)cc1)C(=O)O; Fmoc = O=C(OCC1c2ccccc2-c2ccccc21)*; PEG6 = NCCOCCOCCOCCOCCOCCOCCC(=O)O; NMeL = CN[C@@H](CC(C)C)C(=O)O; Nle = CCCC[C@H](N)C(=O)O; Aib = CC(C)(N)C(=O)O

Assays:
[1] = system: recombinant human neprilysin (rhNEP, Sino Biological); experiment: rhNEP diluted in Tris buffer (100 mM Tris, 100 mM NaCl, 10 μM ZnCl2, pH 7.5), 3.1 nM final concentration; settings: 37° C., up to 72 h
neprilysin (rhNEP) = experiment: recombinant human NEP (rhNEP, Sino Biological) in Tris buffer (100 mM Tris, 100 mM NaCl, 10 μM ZnCl2, pH 7.5); settings: 37° C, up to 72 h
[2] = system: KLKB1 (rhKLKB1, Novoprotein); experiment: Human plasma kallikrein KLKB1 in Tris buffer, KLKB1 concentration of 2 ng/pL; settings: 37° C., up to 48 hours
[3] = human blood plasma (20 μL of plasma); settings: 37° C., up to 60 min
KLKB1 [4] = target: T1, KLKB1 (Homo sapiens, UniProt P03952); experiment: In vitro KLKB1 stability (half-life); type: in vitro ADME; parameters: purchased Novoprotein; settings: human; rhKLKB1, 37° C.; read-out: t1/2 (rhKLKB1, h) (converted)
neprilysin (NEP) = neprilysin (NEP) (Homo sapiens, UniProt P08473); experiment: Neprilysin degradation assay (LC-MS, quantitative); settings: human, pH 7.5
Experimental: This experiment compared the in vitro NEP stability of the Arg/Leu peptides of the embodiments to native apelin isoforms and their A2 substituted counterparts. Peptides were incubated with recombinant human NEP (rhNEP, Sino Biological) at 37° C. for up to 72 h, and the extent of degradation was analyzed via LC-MS because of the overlapping elution patterns of peptide fragments. […] (McKinnie, S. M. K., et al. ChemBioChem: 17, 1495-1498 (2016)). […] (Dion, N., et al., Biochem. J.: 311, 623-627 (1995); Bateman Jr., R. C., et al., J. Biol. Chem.: 264, 6151-6157 (1989); McMurray, J. J. et al., J. Med.: 371, 993-1004 (2014)).
Apelin peptides were dissolved in Milli-Q water (1 mM). Recombinant human neprilysin (rhNEP, Sino Biological) was reconstituted in Tris buffer (100 mM Tris, 100 mM NaCl, 10 μM ZnCl2, pH 7.5). To initiate the assay, rhNEP was diluted in Tris buffer (3.1 nM final concentration), and preincubated at 37° C. for 10 minutes prior to the addition of 5 μL of apelin peptide (1 mM) and 1.5 μL internal standard dansyl-Tyr-Val-Gly-OH (1 mM). Aliquots (10 μL) were removed at 0, 1, 4, 24, and 72 h, quenched with 0.1 M EDTA (10 μL), diluted to 100 μL with Milli-Q water and analyzed by LC-MS. Assays were performed in triplicate (n=3) for each time point. Integrated peak areas of the parent apelin peptide and internal standard derived from LC-MS analyses, were extracted using Mass Hunter software (version B.04.00) and compared in positive extracted ion count modus (+EIC, extracted-ion chromatogram). […] (apelin:dansyl-YVG), to the same ratio at the different assay time points. The decrease in apelin:dansyl-YVG ratio was converted to a percentage of cleaved peptide over time.
The extent of degradation was analyzed via LC-MS because of the overlapping elution patterns of peptide fragments (NEP).
Native apelin-17 (2) and apelin peptides 5, 54, 56, 57, 58 and 59 were dissolved in Milli-Q water (1 mM). Recombinant human neprilysin (rhNEP, Sino Biological) was reconstituted in Tris buffer (100 mM Tris, 100 mM NaCl, 10 μM ZnCl2, pH 7.5). To initiate the assay, rhNEP was diluted in Tris buffer (3.1 nM final concentration) and preincubated at 37° C. for 10 min prior to the addition of 5 μL of apelin peptide (1 mM) and 1.5 μL of internal standard dansyl-Tyr-Val-Gly-OH (1 mM). Aliquots (10 μL) were removed at 0, 1, 4, 24, and 72 h, quenched with 0.1 M EDTA (10 μL), diluted to 100 μL with Milli-Q water, and analyzed by LC-MS. Assays were performed in triplicate (n=3) for each time point. Integrated peak areas of the parent apelin peptide and internal standard derived from LC-MS analyses were extracted using Mass Hunter software (version B.04.00) and compared in positive extracted ion count modus (+EIC). The extent of proteolysis was determined by comparing the initial (0 h) ratio of the integrated extracted ions of the parent apelin peptide to the internal dansyl-YVG standard (apelin/dansyl-YVG) to the same ratio at the different assay time points. The decrease in apelin/dansyl-YVG ratio was converted to a percentage of cleaved peptide over time.

[5] = target: Recombinant Human Neprilysin (Homo sapiens, UniProt P08473); experiment: Neprilysin qualitative cleavage assay (MALDI-TOF); settings: rhNEP 2 ng/μL, 37° C., first degradation products by MALDI-TOF
Experimental: Native apelin-17 (2) and apelin peptides 5, 54, 56, 57, 58 and 59 were dissolved in Milli-Q water (1 mM). Recombinant Human Neprilysin (rhNEP, Sino Biological) was reconstituted in Tris buffer (100 mM Tris, 100 mM NaCl, 10 mM ZnCl2, pH 7.5). To initiate the assays, rhNEP was diluted in Tris buffer to a 2 ng/μL final concentration, and pre-incubated at 37° C. for 10 minutes prior to the addition of 5 μL of apelin peptide (1 mM). Aliquots (1 μL) were taken at 1, 2, 4, 6, 12, 24, 36, and 48 hours and analyzed with MALDI-TOF mass spectrometry to qualitatively determine the time point at which degradation products could be observed.

[6] = target: Human plasma kallikrein KLKB1 (Homo sapiens, UniProt P03952); experiment: Plasma kallikrein KLKB1 qualitative cleavage assay (MALDI-TOF); settings: KLKB1, 37° C., first degradation products by MALDI-TOF
Experimental: Native apelin-17 (2) and apelin peptides 5, 56, 57, 58 and 59 were dissolved in Milli-Q water (1 mM). Human plasma kallikrein KLKB1 were each reconstituted in Tris buffer (100 mM TrisHCl, 10 mM CaCl2), 150 mM NaCl) and diluted with Tris buffer (50 mM TrisHCl, 250 mM NaCl) to give a KLKB1 concentration of […]. The KLKB1 enzyme was then preincubated at 37° C. for 10 minutes prior to the addition of 5 μL of apelin peptide (1 mM). Aliquots (1 μL) were taken at 1, 2, 4, 6, 12, 24, 36, and 48 hours and analyzed with MALDI-TOF mass spectrometry to qualitatively determine the time point at which degradation products could be observed (Table 4).

KLKB1 [7] = target: T1, KLKB1; settings: enzyme KLKB1, data from Gozzo et al. 2006; cited from earlier work

T1 sequence (P03952 20-638): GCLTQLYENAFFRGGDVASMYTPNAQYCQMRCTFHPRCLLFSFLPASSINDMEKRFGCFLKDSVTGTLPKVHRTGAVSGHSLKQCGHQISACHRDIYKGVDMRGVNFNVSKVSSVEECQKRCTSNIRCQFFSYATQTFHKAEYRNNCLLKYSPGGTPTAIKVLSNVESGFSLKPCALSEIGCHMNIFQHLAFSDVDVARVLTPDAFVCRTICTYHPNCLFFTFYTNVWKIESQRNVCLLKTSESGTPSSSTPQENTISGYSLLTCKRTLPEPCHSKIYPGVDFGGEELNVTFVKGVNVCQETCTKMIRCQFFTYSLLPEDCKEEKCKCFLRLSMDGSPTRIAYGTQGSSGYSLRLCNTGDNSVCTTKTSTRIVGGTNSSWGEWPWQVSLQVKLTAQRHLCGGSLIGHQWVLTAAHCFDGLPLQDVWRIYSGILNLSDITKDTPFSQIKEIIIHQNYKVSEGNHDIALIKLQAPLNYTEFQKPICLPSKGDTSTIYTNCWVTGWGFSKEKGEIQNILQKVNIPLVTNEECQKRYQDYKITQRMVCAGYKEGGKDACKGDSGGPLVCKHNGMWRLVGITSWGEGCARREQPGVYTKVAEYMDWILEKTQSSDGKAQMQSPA
Recombinant Human Neprilysin, sequence (P08473 whole entry): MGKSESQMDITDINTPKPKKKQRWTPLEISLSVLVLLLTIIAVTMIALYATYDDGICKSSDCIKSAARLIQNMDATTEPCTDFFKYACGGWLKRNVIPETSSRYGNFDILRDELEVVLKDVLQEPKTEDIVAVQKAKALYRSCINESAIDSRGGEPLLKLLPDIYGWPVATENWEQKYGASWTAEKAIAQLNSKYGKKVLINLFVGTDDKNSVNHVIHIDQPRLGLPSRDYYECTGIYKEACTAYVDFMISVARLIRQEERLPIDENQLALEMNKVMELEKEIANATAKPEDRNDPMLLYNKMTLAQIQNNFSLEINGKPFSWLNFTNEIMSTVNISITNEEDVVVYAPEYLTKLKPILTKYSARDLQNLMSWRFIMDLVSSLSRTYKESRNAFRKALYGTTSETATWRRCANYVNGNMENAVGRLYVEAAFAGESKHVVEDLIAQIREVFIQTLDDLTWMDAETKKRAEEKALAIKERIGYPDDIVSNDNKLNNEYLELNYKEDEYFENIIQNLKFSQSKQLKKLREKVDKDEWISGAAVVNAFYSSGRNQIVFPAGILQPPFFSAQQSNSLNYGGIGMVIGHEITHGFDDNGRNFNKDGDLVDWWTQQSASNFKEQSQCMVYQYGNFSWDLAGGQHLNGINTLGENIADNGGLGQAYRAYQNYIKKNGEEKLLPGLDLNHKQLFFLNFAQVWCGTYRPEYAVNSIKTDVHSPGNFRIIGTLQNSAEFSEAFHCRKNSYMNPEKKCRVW
neprilysin (NEP), sequence (P08473 whole entry, the tested form may be a part, canonical isoform): as the sequence (P08473 whole entry) above
Human plasma kallikrein KLKB1, sequence (P03952 20-638): as the sequence (P03952 20-638) above

Molecule: CCCC[C@H](NC(=O)[C@@H]1CCCN1C(=O)CNC(=O)[C@H](CCCCN)NC(=O)[C@H](Cc1cnc[nH]1)NC(=O)[C@H](CO)NC(=O)[C@H](CC(C)C)NC(=O)[C@H](CCCNC(=N)N)NC(=O)[C@@H]1CCCN1C(=O)[C@H](CCCNC(=N)N)NC(=O)[C@H](CCC(N)=O)NC(=O)[C@H](CCCNC(=N)N)NC(=O)[C@H](CCCNC(=N)N)NC(=O)[C@H](Cc1ccccc1)NC(=O)[C@H](CCCCN)NC(=O)CCOCCOCCOCCOCCOCCOCCNC(=O)OCC1c2ccccc2-c2ccccc21)C(=O)NC(C)(C)C(=O)N[C@@H](Cc1ccc(Br)cc1)C(=O)O [Peptide 57] ({Fmoc-PEG6}-KFRRQRPRLSHKGP[Nle][Aib][Phe(4-Br)]-OH)
half-life (KLKB1 [4]): 1.4 h
half-life (neprilysin (NEP)): > 30 h
Degradation Onset Timepoint with NEP [5]: 12 h
Degradation Onset Timepoint with KLKB1 [6]: 1 h

Molecule: CCCC[C@H](NC(=O)[C@@H]1CCCN1C(=O)CNC(=O)[C@H](CCCCN)NC(=O)[C@H](Cc1cnc[nH]1)NC(=O)[C@H](CO)NC(=O)[C@H](CC(C)C)N(C)C(=O)[C@H](CCCNC(=N)N)NC(=O)[C@@H]1CCCN1C(=O)[C@H](CCCNC(=N)N)NC(=O)[C@H](CCC(N)=O)NC(=O)[C@H](CCCNC(=N)N)NC(=O)[C@H](CCCNC(=N)N)NC(=O)[C@H](Cc1ccccc1)NC(=O)[C@H](CCCCN)NC(=O)CCOCCOCCOCCOCCOCCOCCNC(=O)OCC1c2ccccc2-c2ccccc21)C(=O)NC(C)(C)C(=O)N[C@@H](Cc1ccc(Br)cc1)C(=O)O [Peptide 59] ({Fmoc-PEG6}-KFRRQRPR[NMeL]SHKGP[Nle][Aib][Phe(4-Br)]-OH)
half-life (KLKB1 [4]): 2.9 h
half-life (neprilysin (NEP)): > 30 h
Degradation Onset Timepoint with NEP [5]: >36 h
Degradation Onset Timepoint with KLKB1 [6]: 2 h

B1: Kininogen: KLKB1 substrate, kinetic data from Gozzo et al. (protein, UniProt P01042 19-644, looked up)
Kininogen-1: QESQSEEIDCNDKDLFKAVDAALKKYNSQNQSNNQFVLYRITEATKTVGSDTFYSFKYEIKEGDCPVQSGKTWQDCEYKDAAKAATGECTATVGKRSSTKFSVATQTCQITPAEGPVVTAQYDCLGCVHPISTQSPDLEPILRHGIQYFNNNTQHSSLFMLNEVKRAQRQVVAGLNFRITYSIVQTNCSKENFLFLTPDCKSLWNGDTGECTDNAYIDIQLRIASFSQNCDIYPGKDFVQPPTKICVGCPRDIPTNSPELEETLTHTITKLNAENNATFYFKIDNVKKARVQVVAGKKYFIDFVARETTCSKESNEELTESCETKKLGQSLDCNAEVYVVPWEKKIYPTVNCQPLGMISLMKRPPGFSPFRSSRIGEIKEETTVSPPHTSMAPAQDEERDSGKEQGHTRRHDWGHEKQRKHNLGHGHKHERDQGHGHQRGHGLGHGHEQQHGLGHGHKFKLDDDLEHQGGHVLDHGHKHKHGHGHGKHKNKGKKNGKHNGWKTEHLASSSEDSTTPSAQTQEKTEGPTPIPSLAKPGVTVTFSDFQDSDLIATMMPPISPAPIQSDDDWIPDIQIDPNGLSFNPISDFPDTTSPKCPGRPWKSVSEINPTTQMKESYYFDLTDGLS
Km (KLKB1 [7]): 0.75 µM
kcat (KLKB1 [7]): 0.031 s⁻¹

The next lines start with the values.

cleaved bond [1]: Nle11-Aib12, minor
cleaved bond (neprilysin (rhNEP)): Nle11-Aib12, minor
Molecule: pGlu-Arg-Pro-Arg-D-Leu-Ser-His-Lys-Gly-Pro-Nle-Aib-paraBrPhe

cleaved bond [2]: Arg3-Arg4, <30 min
fragment found [3]: 1-3 and 4-17
Molecule: Lys-Phe-Arg-Arg-Gln-Arg-Pro-Arg-Leu-Ser-His-Lys-Gly-Pro-Nle-Aib-paraBrPhe

cleaved bond [1]: Nle15-Aib16, minor
cleaved bond (neprilysin (rhNEP)): Nle15-Aib16, minor
Molecule: Lys-Phe-Arg-Arg-Gln-Arg-Pro-Arg-D-Leu-Ser-His-Lys-Gly-Pro-Nle-Aib-paraBrPhe

cleaved bond [1]: Nle15-Aib16, minor
not cleaved [3]: 94 ± 3 % apelin at 60 min
Molecule: Lys-Phe-Arg-Arg-Gln-Arg-Pro-azaArg-Leu-Ser-His-Lys-Gly-Pro-Nle-Aib-paraBrPhe
